Consider 34 molecules from patent publication US20260306640A1, “TECHNOLOGIES TARGETING CELL STATES” (Auron Therapeutics, Inc., priority 2023, published 2026).

As a reminder, the DC50 is the midpoint of the concentration-degradation curve. One may read the GI50 as the concentration giving 50% growth inhibition.

Holding throughout (assay type): cell-based
For experiment [1], the target named is T1, KAT2A (Homo sapiens, UniProt Q92830). The experiment can be described thus: KAT2A degradation, Western Blot (Jess), MOLM-13 cells. On the set-up: degrader, Western blot. To be noted: MOLM-13 cells, KAT2A, 24 h, Western Blot, vs DMSO; read-out: KAT2A MOLM-13 DC50. Put shortly:
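MOLM-13 cells in RPMI 1640/20% FBS were treated with compound for 24 h at 37 °C. RIPA lysates (4 μg) were run on a capillary Western (Jess) with anti-KAT2A antibody and chemiluminescent detection. DC50 comes from percent protein reduction versus DMSO control.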

The target in experiment [2] is T1, KAT2A. The experiment can be described thus: KAT2A degradation, Western Blot (Jess), NCI-H1048 cells. To be noted: NCI-H1048 cells, KAT2A, 24 h, Western Blot, vs DMSO; read-out: KAT2A NCI-H1048 DC50. The arrangement: degrader, Western blot (Jess). The gist of the method: (§1)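 NCI-H1048 cells grown in HITES medium with 5% FBS were treated with compounds for 24 h at 37° C. Lysates were run by capillary Western (Jess) with KAT2A or KAT2B antibodies and chemiluminescent detection. DC50 derived from percent protein reduction versus DMSO control.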

The target in the next experiment is KAT2B (Homo sapiens, UniProt Q92831). The experiment can be described thus: KAT2B degradation, Western Blot (Jess), NCI-H1048 cells. The arrangement: degrader, Western blot (Jess). To be noted: NCI-H1048 cells, KAT2B, 24 h, Western Blot, vs DMSO; read-out: KAT2B NCI-H1048 DC50. The gist of the method: as §1
On the technique in general: In western blotting, separated proteins are transferred to a membrane and probed.

In the next experiment the test system is MOLM-13 cells. The experiment is described as follows: Cell growth inhibition, AML cell line MOLM-13 (CyQuant, day 7). The conditions noted are these: Homo sapiens, 168 h; MOLM-13, day 7, CyQuant; read-out: MOLM13 GI50. The source says: Among other things, provided technologies are useful for treating various diseases, disorders, or conditions. For example, in some embodiments, provided technologies are useful for treating cancer as confirmed in the present Example. […] In some embodiments, provided technologies can inhibit cell proliferation. In some embodiments, the present disclosure provides technologies for assessing various technologies, e.g., compounds, compositions, or methods. Among other things, the present Example provides technologies, e.g., cell growth inhibition assay, for assessing various technologies. […] In some embodiments, the following cell growth inhibition methods are utilized to assess provided technologies.
AML: AML cell line MOLM-13 cells were cultured in RPMI+15% FBS and were plated at 500 cells/well in 100 uL media in a U-bottom 96-well plate. Compounds were dilute to 3×final in full media and 50 uL were added to corresponding wells. Compound and media were replenished on days 2 and 5. On day 7, cells were transferred to a 96-well black bottom plate and CyQuant was performed per manufacturer's instructions.
In some assessments, for cell growth inhibition, cells, e.g., MOLM13, NCI-H1048, and LASCPC-01 cells, were counted using a hemocytometer or automated cell counting in triplicates. In some assessments, proliferation in NEPC organoids as measured with Cell Titer Glo reagent (Promega). Growth inhibition was determined relative to vehicle control.

Sequence of KAT2B (Q92831 whole entry): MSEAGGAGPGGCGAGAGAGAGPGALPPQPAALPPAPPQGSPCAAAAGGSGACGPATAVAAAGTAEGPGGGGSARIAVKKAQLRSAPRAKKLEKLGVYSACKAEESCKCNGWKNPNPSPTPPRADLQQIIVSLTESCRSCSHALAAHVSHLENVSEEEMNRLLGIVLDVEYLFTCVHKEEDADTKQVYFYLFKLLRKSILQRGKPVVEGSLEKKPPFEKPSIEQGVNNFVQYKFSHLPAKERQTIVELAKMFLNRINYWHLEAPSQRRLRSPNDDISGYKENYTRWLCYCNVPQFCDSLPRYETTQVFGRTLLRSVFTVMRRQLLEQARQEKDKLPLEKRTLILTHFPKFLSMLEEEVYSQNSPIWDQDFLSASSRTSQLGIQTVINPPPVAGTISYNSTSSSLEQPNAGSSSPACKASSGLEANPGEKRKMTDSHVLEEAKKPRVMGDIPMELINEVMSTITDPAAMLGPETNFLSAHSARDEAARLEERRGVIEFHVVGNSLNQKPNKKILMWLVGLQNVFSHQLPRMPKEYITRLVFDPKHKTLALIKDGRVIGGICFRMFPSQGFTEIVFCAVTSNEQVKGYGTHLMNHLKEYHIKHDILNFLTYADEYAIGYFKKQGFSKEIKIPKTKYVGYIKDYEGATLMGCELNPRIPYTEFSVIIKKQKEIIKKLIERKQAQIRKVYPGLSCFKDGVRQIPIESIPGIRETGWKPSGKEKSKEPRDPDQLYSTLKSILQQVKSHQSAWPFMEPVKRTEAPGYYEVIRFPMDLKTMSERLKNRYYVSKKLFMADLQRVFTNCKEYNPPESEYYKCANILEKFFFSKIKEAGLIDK
T1 sequence (Q92830 whole entry): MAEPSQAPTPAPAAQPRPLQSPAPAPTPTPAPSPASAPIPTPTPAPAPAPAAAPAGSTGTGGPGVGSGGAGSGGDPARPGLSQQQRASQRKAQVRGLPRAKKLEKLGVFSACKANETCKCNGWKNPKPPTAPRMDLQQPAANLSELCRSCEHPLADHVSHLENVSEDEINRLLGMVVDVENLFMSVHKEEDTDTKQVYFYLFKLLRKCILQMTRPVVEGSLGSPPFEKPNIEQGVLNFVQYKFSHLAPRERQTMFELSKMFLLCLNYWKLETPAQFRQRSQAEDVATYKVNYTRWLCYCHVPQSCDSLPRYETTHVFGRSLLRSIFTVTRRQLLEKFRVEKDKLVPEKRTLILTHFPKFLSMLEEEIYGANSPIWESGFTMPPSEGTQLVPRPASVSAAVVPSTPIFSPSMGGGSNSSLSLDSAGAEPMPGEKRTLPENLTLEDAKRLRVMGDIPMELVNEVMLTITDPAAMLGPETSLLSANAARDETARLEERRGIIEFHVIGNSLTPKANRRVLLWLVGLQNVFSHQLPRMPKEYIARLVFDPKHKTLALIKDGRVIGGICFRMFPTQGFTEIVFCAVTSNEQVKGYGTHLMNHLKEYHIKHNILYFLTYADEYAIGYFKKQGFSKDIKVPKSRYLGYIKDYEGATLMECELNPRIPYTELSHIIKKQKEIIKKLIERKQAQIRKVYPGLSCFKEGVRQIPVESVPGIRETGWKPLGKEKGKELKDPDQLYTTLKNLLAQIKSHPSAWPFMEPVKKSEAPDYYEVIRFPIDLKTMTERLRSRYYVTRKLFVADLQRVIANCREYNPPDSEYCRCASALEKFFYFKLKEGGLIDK

In the case of `Cc1cc(OC2CCN(C(=O)c3ccc([C@H]4C[C@@H](Nc5cnn(C)c(=O)c5Br)CN(C)C4)cc3)CC2)ccc1C1CCC(=O)NC1=O` (some centres unmarked) [Compound 114], the DC50 is below 1 nM at KAT2A [1], below 1 nM on KAT2A [2] and above 30 nM at KAT2B.
With `Cc1c(N[C@@H]2C[C@H](c3ccc(C(=O)N4CCC5(CC4)CCN(c4ccc(C6CCC(=O)NC6=O)cc4)CC5)cc3)CN(C)C2)cnn(C)c1=O` (some centres unmarked) [Compound 186], the DC50 on KAT2A [1], on KAT2A [2] and on KAT2B was below 1 nM throughout.
In the case of `CN1C[C@H](Nc2cnn(C)c(=O)c2Br)C[C@H](c2ccc(C(=O)N3CCC(Oc4cccc(C5CCC(=O)NC5=O)c4)CC3)cc2)C1` (some centres unmarked) [Compound 120], the DC50 at KAT2A [1] was 1 to 30 nM; on KAT2A [2], below 1 nM; on KAT2B it was above 30 nM.
For `Cc1c(N[C@@H]2C[C@H](c3ccc(CN4CCC(Oc5ccc(C6CCC(=O)NC6=O)cc5)CC4)cc3)CN(C)C2)cnn(C)c1=O` (some centres unmarked) [Compound 188], in that order: below 1 nM, below 1 nM and above 30 nM.
`CN1C[C@H](Nc2cnn(C)c(=O)c2Br)C[C@H](c2ccc(C(=O)N3CCC(Oc4ccc(C5CCC(=O)NC5=O)cc4F)CC3)cc2)C1` (some centres unmarked) [Compound 124]: the figures for the DC50 on KAT2A [1], on KAT2A [2] and at KAT2B were below 1 nM, below 1 nM and 1 to 30 nM, respectively.
Regarding `CN1C[C@H](Nc2cnn(C)c(=O)c2Cl)C[C@H](c2ccc(C(=O)N3CC4(CC(Oc5ccc(C6CCC(=O)NC6=O)c(F)c5)C4)C3)cc2)C1` (some centres unmarked) [Compound 2-44], the DC50 is 1 to 30 nM on KAT2A [1], below 1 nM at KAT2A [2] and below 1 nM at KAT2B.
Consider `CN1C[C@H](Nc2cnn(C)c(=O)c2Br)C[C@H](c2ccc(CN3CCN(c4ccc5c(c4)C(=O)N(C4CCC(=O)NC4=O)C5=O)CC3)cc2)C1` (some centres unmarked) [Compound 28], for which the DC50 on KAT2A [1], on KAT2A [2] and on KAT2B was below 1 nM each time.
Turning to `Cc1c(N[C@@H]2C[C@H](c3ccc(CN4CCN(c5cccc(C6CCC(=O)NC6=O)c5)CC4)cc3)CN(C)C2)cnn(C)c1=O` (some centres unmarked) [Compound 187], the DC50 was below 1 nM at KAT2A [1], below 1 nM on KAT2A [2] and 1 to 30 nM at KAT2B.
For the molecule `CN1C[C@H](Nc2cnn(C)c(=O)c2Cl)C[C@H](c2ccc(CN3CCN(c4ccc5c(c4)C(=O)N(C4CCC(=O)NC4=O)C5=O)CC3)cc2)C1` (some centres unmarked) [Compound 175], the DC50 was below 1 nM on KAT2A [1], below 1 nM on KAT2A [2] and 1 to 30 nM on KAT2B.
Take `CN1C[C@H](Nc2cnn(C)c(=O)c2Br)C[C@H](c2ccc(C(=O)N3CCC4(CC3)CN(c3ccc(C5CCC(=O)NC5=O)cc3)C4)cc2)C1` (some centres unmarked) [Compound 126]: the DC50 on KAT2A [1] was below 1 nM; at KAT2A [2] it was below 1 nM; at KAT2B, 1 to 30 nM.
Take `Cc1cc(OC2CCN(Cc3ccc([C@H]4C[C@@H](Nc5cnn(C)c(=O)c5Br)CN(C)C4)cc3)CC2)ccc1C1CCC(=O)NC1=O` (some centres unmarked) [Compound 123]: the half-maximal degradation concentration (DC50) on KAT2A [1] was below 1 nM; at KAT2A [2] it was below 1 nM; on KAT2B, above 30 nM.
Turning to `CN1C[C@H](Nc2cnn(C)c(=O)c2Cl)C[C@H](c2ccc(CN3CCC4(CC3)CCN(c3ccc(C5CCC(=O)NC5=O)cc3)CC4)cc2)C1` (some centres unmarked) [Compound 155], the half-maximal degradation concentration (DC50) at KAT2A [1], on KAT2A [2] and at KAT2B was below 1 nM each time.
Regarding `CN1C[C@H](Nc2cnn(C)c(=O)c2Cl)C[C@H](c2ccc(CN3CCN(c4ccc5c(c4)CN(C4CCC(=O)NC4=O)C5=O)CC3)cc2)C1` (some centres unmarked) [Compound 72], the DC50 on KAT2A [1], on KAT2A [2] and at KAT2B was below 1 nM in each case.
Consider `CN1C[C@H](Nc2cnn(C)c(=O)c2Br)C[C@H](c2ccc(CN3CCC(Oc4ccc(C5CCC(=O)NC5=O)cc4F)CC3)cc2)C1` (some centres unmarked) [Compound 125], for which the DC50 on KAT2A [1] was below 1 nM; at KAT2A [2] it was below 1 nM; on KAT2B, above 30 nM.
Consider `CN1C[C@H](Nc2cnn(C)c(=O)c2Cl)C[C@H](c2ccc(COc3ccc4c(c3)C(=O)N(C3CCC(=O)NC3=O)C4=O)cc2)C1` (some centres unmarked) [Compound 110], for which the 50% degradation concentration (DC50) at KAT2A [1], at KAT2A [2] and at KAT2B was 1 to 30 nM in each case.
Consider `CN1C[C@H](Nc2cnn(C)c(=O)c2Cl)C[C@H](c2ccc(CN3CCN(c4cccc(C5CCC(=O)NC5=O)c4)CC3)cc2)C1` (some centres unmarked) [Compound 162], for which the DC50 at KAT2A [1] was below 1 nM; on KAT2A [2] it was below 1 nM; on KAT2B it was 1 to 30 nM.
As for `CN1C[C@H](Nc2cnn(C)c(=O)c2Br)C[C@H](c2ccc(CN3CCN(c4ccc(F)c(C5CCC(=O)NC5=O)c4)CC3)cc2)C1` (some centres unmarked) [Compound 152], the 50% degradation concentration (DC50) is 1 to 30 nM on KAT2A [1], below 1 nM at KAT2A [2] and 1 to 30 nM at KAT2B.
In the case of `CN1C[C@H](Nc2cnn(C)c(=O)c2Cl)C[C@H](c2ccc(CN3CCC(Oc4ccc(C5CCC(=O)NC5=O)cc4)CC3)cc2)C1` (some centres unmarked) [Compound 168], the DC50 at KAT2A [1] was below 1 nM; on KAT2A [2], below 1 nM; on KAT2B, 1 to 30 nM.
`CN1C[C@H](Nc2cnn(C)c(=O)c2Br)C[C@H](c2ccc(CN3CC(Oc4cccc(C5CCC(=O)NC5=O)c4)C3)cc2)C1` (some centres unmarked) [Compound 184]: the DC50 at KAT2A [1] is 1 to 30 nM; on KAT2A [2], below 1 nM; on KAT2B it was above 30 nM.
On to `CN1C[C@H](Nc2cnn(C)c(=O)c2Br)C[C@H](c2ccc(CN3CCN(c4ccc5c(c4)CN(C4CCC(=O)NC4=O)C5=O)CC3)cc2)C1` (some centres unmarked) [Compound 67], for which the 50% degradation concentration (DC50) at KAT2A [1], on KAT2A [2] and at KAT2B was below 1 nM in each case.
Consider `CN1CC(Nc2cnn(C)c(=O)c2Br)CC(c2ccc(C(=O)N3CCC4(CC3)CCN(c3ccc(C5CCC(=O)NC5=O)cc3)CC4)cc2)C1` (centres unmarked) [Compound 437], for which the GI50 in the experiment with MOLM-13 cells was 0.3 nM.
Take `CN1C[C@H](Nc2cnn(C)c(=O)c2Br)C[C@H](c2ccc(C(=O)N(C)c3ccc(CCCOc4cccc5c4C(=O)N(C4CCC(=O)NC4=O)C5=O)cc3)cc2)C1` (some centres unmarked) [Compound 2]: at KAT2A [1], the half-maximal degradation concentration (DC50) was 1 to 30 nM.
The same measure, in the same setting: for `CN1C[C@H](Nc2cnn(C)c(=O)c2Br)C[C@H](c2ccc(CN3CCC(c4ccc(C5CCC(=O)NC5=O)cc4)CC3)cc2)C1` (some centres unmarked) [Compound 87] the value was 1 to 30 nM.
On the same count and under the same terms, the same measure for `CN1C[C@H](Nc2cnn(C)c(=O)c2Br)C[C@H](c2ccc(CN3CCC4(CC3)CCN(c3ccc(C5CCC(=O)NC5=O)cc3F)CC4)cc2)C1` (some centres unmarked) [Compound 158]: below 1 nM.
Consider `CN1C[C@H](Nc2cnn(C)c(=O)c2Cl)C[C@H](c2ccc(CN3Cc4cc5c(cc4C3)C(=O)N(C3CCC(=O)NC3=O)C5=O)cc2)C1` (some centres unmarked) [Compound 164], for which, on KAT2A [1], the DC50 was in the range of 1 to 30 nM.
On the same count and under the same terms, for `CN1C[C@H](Nc2cnn(C)c(=O)c2Br)C[C@H](c2ccc(C(=O)N3CCN(Cc4cccc(C5CCC(=O)NC5=O)c4)CC3)cc2)C1` (some centres unmarked) [Compound 100] the value was below 1 nM; for `Cc1ccc(N2CCN(Cc3ccc([C@H]4C[C@@H](Nc5cnn(C)c(=O)c5Br)CN(C)C4)cc3)CC2)cc1C1CCC(=O)NC1=O` (some centres unmarked) [Compound 165], below 1 nM.
On the same count and under the same terms, the same measure for `CN1C[C@H](Nc2cnn(C)c(=O)c2Br)C[C@H](c2ccc(CN3CCC4(CC3)CN(c3ccc(C5CCC(=O)NC5=O)cc3)C4)cc2)C1` (some centres unmarked) [Compound 133]: 1 to 30 nM; for `CN1C[C@H](Nc2cnn(C)c(=O)c2Br)C[C@H](c2ccc(C(=O)N3CCC4(CC3)CN(c3ccc5c(c3)C(=O)N(C3CCC(=O)NC3=O)C5=O)C4)cc2)C1` (some centres unmarked) [Compound 97]: below 1 nM.
The same measure, in the same setting: for `CN1C[C@H](Nc2cnn(C)c(=O)c2Br)C[C@H](c2ccc(C(=O)NCCCCCCOc3cccc4c3C(=O)N(C3CCC(=O)NC3=O)C4=O)cc2)C1` (some centres unmarked) [Compound 41] the value was below 1 nM; for `CN1C[C@H](Nc2cnn(C)c(=O)c2Br)C[C@H](c2ccc(CN3CCC4(CC3)CCN(c3ccc(C5CCC(=O)NC5=O)cc3)CC4)cc2)C1` (some centres unmarked) [Compound 88], below 1 nM; for `CN1C[C@H](Nc2cnn(C)c(=O)c2Br)C[C@H](c2ccc(CN3CCC(c4ccc(OC5CCC(=O)NC5=O)cc4)CC3)cc2)C1` (some centres unmarked) [Compound 173], 1 to 30 nM.
Consider `CN1C[C@H](Nc2cnn(C)c(=O)c2Br)C[C@H](c2ccc(C(=O)N3CCN(CCOCCC(=O)Nc4cccc5c4C(=O)N(C4CCC(=O)NC4=O)C5=O)CC3)cc2)C1` (some centres unmarked) [Compound 7], for which the 50% degradation concentration (DC50) at KAT2A [1] lay within 1 to 30 nM.
Same read-out and setting: the same measure for `CN1C[C@H](Nc2cnn(C)c(=O)c2Br)C[C@H](c2ccc(C(=O)N3CCN(Cc4ccc(C5CCC(=O)NC5=O)cc4)CC3)cc2)C1` (some centres unmarked) [Compound 80]: below 1 nM.
